{
  "source": "paper PMC3383612",
  "about": "(Chemical biology & drug design, 2011)",
  "key": {"[1]": {"target": "T1, spASADH (Streptococcus pneumoniae, UniProt Q8DQ00)", "T1 sequence (Q8DQ00 1-358)": "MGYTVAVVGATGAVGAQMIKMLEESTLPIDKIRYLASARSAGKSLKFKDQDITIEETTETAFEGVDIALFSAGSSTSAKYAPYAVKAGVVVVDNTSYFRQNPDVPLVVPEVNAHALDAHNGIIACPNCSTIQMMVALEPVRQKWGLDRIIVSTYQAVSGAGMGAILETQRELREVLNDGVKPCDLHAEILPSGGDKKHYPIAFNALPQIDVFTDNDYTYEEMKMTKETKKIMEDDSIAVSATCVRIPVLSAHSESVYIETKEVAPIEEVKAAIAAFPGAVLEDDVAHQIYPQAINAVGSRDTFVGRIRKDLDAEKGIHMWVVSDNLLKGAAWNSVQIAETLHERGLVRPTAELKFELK", "assay": "Kinetic inhibition of spASADH", "assay_type": "biochemical"}, "[2]": {"target": "ASADH (Vibrio cholerae serotype O1, UniProt Q9KQG2)", "sequence (Q9KQG2 whole entry)": "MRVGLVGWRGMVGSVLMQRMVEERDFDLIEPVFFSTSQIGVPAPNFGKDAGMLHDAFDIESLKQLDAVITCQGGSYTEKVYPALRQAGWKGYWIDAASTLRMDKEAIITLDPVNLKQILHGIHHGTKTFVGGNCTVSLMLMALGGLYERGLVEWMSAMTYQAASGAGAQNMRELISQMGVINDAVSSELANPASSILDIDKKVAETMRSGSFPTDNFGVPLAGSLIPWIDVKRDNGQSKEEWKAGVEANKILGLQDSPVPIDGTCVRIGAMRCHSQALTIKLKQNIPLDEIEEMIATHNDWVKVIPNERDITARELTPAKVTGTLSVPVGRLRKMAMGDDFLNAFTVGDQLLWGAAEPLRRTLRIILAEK", "assay": "Kinetic inhibition of ASADH by substrate analogue", "assay_type": "biochemical", "conditions": "inhibitor of ASADH, enzyme form not stated"}, "[3]": {"target": "T1, spASADH", "conditions": "in words; ref [14]; cited from earlier work"}},
  "data": [
    {"smiles": "O=C(O)C1CCC(C(=O)O)CC1", "note": "(stereo not drawn) [cyclohexane-1,4-dicarboxylate]", "values": [
      {"measurement": "higher affinity than 2-aminoterephthalate", "setting": "[1]; ratio of Ki values", "result": 2, "unit": "fold"}
    ]},
    {"smiles": "O=C(O)c1ccc(C(=O)O)cc1", "note": "[Terephthalic acid, benzene-1,4-dicarboxylic acid]", "values": [
      {"measurement": "Ki", "setting": "[1]", "result": "~5", "unit": "mM"}
    ]},
    {"smiles": "C=CC[S@+]([O-])C[C@H](N)C(=O)O", "note": "[S-allyl-L-cysteine sulfoxide]", "values": [
      {"measurement": "Ki", "setting": "[2]", "result": 8, "unit": "µM"}
    ]},
    {"smiles": "Nc1cc(C(=O)O)ccc1C(=O)O", "note": "[2-aminoterephthalate]", "values": [
      {"measurement": "Ki", "setting": "[1]", "result": 0.78, "unit": "mM"},
      {"measurement": "enhanced affinity relative to terephthalic acid", "setting": "[1]; ratio of Ki values", "result": "greater than 6 fold"}
    ]},
    {"smiles": "NC(CCCC(=O)O)C(=O)O", "note": "(racemic) [DL-2-aminoadipate]", "values": [
      {"measurement": "inhibitory activity", "setting": "[3]", "result": "little inhibitory activity"}
    ]}
  ]
}
